Measurements reported in US9700546B2, “Trivalent chromium compounds, compositions and methods of use” (INTERHEALTH NUTRACEUTICALS, INC., priority 2006, dated 2017).
Like-named read-outs stand apart in the source and are kept apart here.

How the values were obtained:
Obese Zucker rats [1] = assay: In vivo assessment in obese Zucker rats: body weight and food intake; settings: obese Zucker rats, daily 400 μg Cr(III)/kg, mean
Obese Zucker rats [2] = assay: In vivo assessment in obese Zucker rats: blood lipid profile (total cholesterol, triglycerides, HDL); settings: daily 400 μg Cr(III)/kg, 8 weeks, mean
Obese Zucker rats [3] = assay: In vivo assessment in obese Zucker rats: other vascular inflammation markers (cAMP, TNFα, IL-6, OxyDNA); settings: obese Zucker rats, daily 400 μg Cr(III)/kg, 8 weeks, mean ± SE; for OxyDNA: oxidative DNA damage
Obese Zucker rats [4] = assay: In vivo assessment in obese Zucker rats: vascular inflammation markers (MCP-1, CRP, RBP-4, leptin, ICAM, adiponectin); settings: obese Zucker rats, daily 400 μg Cr(III)/kg, 8 weeks, mean
Obese Zucker rats [5] = assay: In vivo assessment in obese Zucker rats: key biological parameters (fasting glucose, HbA1c, vitamin C, GSH, RBC lipid peroxidation); settings: obese Zucker rats, daily 400 μg Cr(III)/kg, 8 weeks, mean; for RBC Lipid Peroxidase: malondialdehyde by thiobarbituric acid; for Fasting Glucose: fasted overnight
Obese Zucker rats [6] = assay: In vivo assessment in obese Zucker rats: clinical chemistry (AP, BUN, CRT, AST, ALT); settings: obese Zucker rats; mean ± SE
Obese Zucker rats [7] = settings: rat, in vivo

| Compound | HDL (Obese Zucker rats [2]) [mg/dL] | Total Chol/HDL (Obese Zucker rats [2]) [ratio] | Total Cholesterol (Obese Zucker rats [2]) [mg/dL] | Triglyceride (Obese Zucker rats [2]) [mg/dL] | IL-6 (Obese Zucker rats [3]) [pg/mL] | cAMP (Obese Zucker rats [3]) [pmol/mL] | OxyDNA (Obese Zucker rats [3]) [ng/mL] | Leptin (Obese Zucker rats [4]) [pg/mL] | RBP-4 (Obese Zucker rats [4]) [ng/mL] | Adiponectin (Obese Zucker rats [4]; plasma, ELISA) [ng/mL] | CRP (Obese Zucker rats [4]; plasma, ELISA) [ng/mL] | MCP-1 (Obese Zucker rats [4]; plasma, ELISA) [pg/mL] | RBC Lipid Peroxidase (Obese Zucker rats [5]) [nmol/mL] | Fasting Glucose (Obese Zucker rats [5]) [mg/dL] | GSH (Obese Zucker rats [5]) [µmol/g] | HbA1c (Obese Zucker rats [5]) [%] | ALT (Alanine Aminotransferease) (Obese Zucker rats [6]) [u/L] | AP (Alkaline phosphatase) (Obese Zucker rats [6]) [u/L] | AST (Aspartate Aminotransferase) (Obese Zucker rats [6]) [u/L] | TNFα (Obese Zucker rats [3]) [pg/mL] | other results |
| --- | --- | --- | --- | --- | --- | --- | --- | --- | --- | --- | --- | --- | --- | --- | --- | --- | --- | --- | --- | --- | --- |
| Chromium Dinicotinate Phenylalanine [Cr(nic)2Phe] | 70.43 | 2.87 | 201.71 | 583.00 | 84.82 ± 1.60 | 31.60 ± 1.22 | 40.63 ± 3.74 | 351.16 | 53891.43 | 12712.86 | 633.55 | 1755.25 | 1.97 | 510.43 | 5.05 | 15.95 |  |  |  |  | Food Intake 5 wks (Obese Zucker rats [1]; at 5 weeks): 38.16 g/day; Food Intake 7 wks (Obese Zucker rats [1]; at 7 weeks): 39.22 g/day; ICAM (Obese Zucker rats [4]; plasma, ELISA): 17480.50 pg/mL; Vitamin C (Obese Zucker rats [5]; plasma): 0.15 mg % |
| Chromium Triphenylalanine [Cr(Phe)3, reference compound] | 60.82 | 2.84 | 169.68 | 467.04 | 89.82 ± 8.55 | 29.62 ± 1.01 | 53.11 ± 4.76 | 387.92 | 48555.98 | 11243.47 | 533.12 | 2064.89 | 2.01 | 549.70 | 4.50 | 15.04 | 186.29 | 30.00 | 276.43 | 15.92 ± 7.76 | Anion Gap (Obese Zucker rats [6]): 29.00; BUN (Blood Urea Nitrogen) (Obese Zucker rats [6]): 20.71 mg/dL; BUN/CRT Ratio (Obese Zucker rats [6]): 52.14; CRT (Creatinine) (Obese Zucker rats [6]): 0.40 mg/dL; Total Bilirubin (Obese Zucker rats [6]): 0.10 mg/dL |
| CCC(=O)[O-].CCC(=O)[O-].CCC(=O)[O-].[Cr+3] [CrProp, Chromium Propionate, reference compound] | 64.19 | 2.68 | 170.56 | 456.14 | 90.50 ± 14.02 | 26.95 ± 1.13 | 47.19 ± 5.07 | 393.47 | 49851.91 | 12903.52 | 820.04 | 4497.83 | 2.18 | 549.49 | 4.76 | 16.90 | 207.00 | 32.20 | 347.25 | 41.14 ± 10.06 | Anion Gap (Obese Zucker rats [6]): 29.20; BUN (Blood Urea Nitrogen) (Obese Zucker rats [6]): 22.25 mg/dL; BUN/CRT Ratio (Obese Zucker rats [6]): 53.40; CRT (Creatinine) (Obese Zucker rats [6]): 0.40 mg/dL; Total Bilirubin (Obese Zucker rats [6]): 0.10 mg/dL |
| Chromium Cinnamate [CrCin] | 65.44 | 2.94 | 191.11 | 507.35 | 92.94 ± 13.21 | 29.24 ± 0.61 | 48.71 ± 1.25 | 379.18 | 47905.13 | 11507.60 | 587.35 | 2428.69 | 3.12 | 557.37 | 5.00 | 15.61 |  |  |  | 8.62 ± 4.90 | ALT (Alanine Aminotransferease) (Obese Zucker rats [7]): 158.71 u/L; AP (Alkaline phosphatase) (Obese Zucker rats [7]): 30.71 u/L; AST (Aspartate Aminotransferase) (Obese Zucker rats [7]): 230.14 u/L; Anion Gap (Obese Zucker rats [7]): 29.86; BUN (Blood Urea Nitrogen) (Obese Zucker rats [7]): 21.43 mg/dL; BUN/CRT Ratio (Obese Zucker rats [7]): 51.86; CRT (Creatinine) (Obese Zucker rats [7]): 0.41 mg/dL; Total Bilirubin (Obese Zucker rats [7]): 0.10 mg/dL |
| Chromium Picolinate + Biotin [CrP + Biotin] |  |  |  |  |  |  |  |  |  |  |  |  |  |  |  |  |  |  |  |  | ALT (Alanine Aminotransferease) (Obese Zucker rats [7]): 100.71 u/L; AP (Alkaline phosphatase) (Obese Zucker rats [7]): 64.00 u/L; AST (Aspartate Aminotransferase) (Obese Zucker rats [7]): 160.29 u/L; Anion Gap (Obese Zucker rats [7]): 25.86; BUN (Blood Urea Nitrogen) (Obese Zucker rats [7]): 19.14 mg/dL; BUN/CRT Ratio (Obese Zucker rats [7]): 46.50; CRT (Creatinine) (Obese Zucker rats [7]): 0.41 mg/dL; Total Bilirubin (Obese Zucker rats [7]): 0.10 mg/dL |
